Experimental findings from ChEMBL document CHEMBL3763143, “Novel morpholine scaffolds as selective dopamine (DA) D3 receptor antagonists” (Bioorg Med Chem Lett, 2016) are described below.

pIC50, pKi: −log10 of the molar value. Active and inactive are the calls of the source.

The target in data set [1] is Dopamine receptor D2 and D3 (Rattus norvegicus) (UniProt P19020+P61169). Put plainly: Selectivity ratio of Ki for rat brain dopamine D2 receptor to Ki for rat brain dopamine D3 receptor.
In data set [2] the target is Muscarinic acetylcholine receptor M3 (Homo sapiens, UniProt P20309). The data set is described as follows: Binding affinity to muscarinic M3 receptor (unknown origin).
The nature of data set [3]: Fraction unbound in portal vein-cannulated rat blood. It counts as ADME, tissue-based.
The target of the next data set is T1, Cytochrome P450 1A2 (Homo sapiens, UniProt P05177).
T1 sequence (P05177 whole entry): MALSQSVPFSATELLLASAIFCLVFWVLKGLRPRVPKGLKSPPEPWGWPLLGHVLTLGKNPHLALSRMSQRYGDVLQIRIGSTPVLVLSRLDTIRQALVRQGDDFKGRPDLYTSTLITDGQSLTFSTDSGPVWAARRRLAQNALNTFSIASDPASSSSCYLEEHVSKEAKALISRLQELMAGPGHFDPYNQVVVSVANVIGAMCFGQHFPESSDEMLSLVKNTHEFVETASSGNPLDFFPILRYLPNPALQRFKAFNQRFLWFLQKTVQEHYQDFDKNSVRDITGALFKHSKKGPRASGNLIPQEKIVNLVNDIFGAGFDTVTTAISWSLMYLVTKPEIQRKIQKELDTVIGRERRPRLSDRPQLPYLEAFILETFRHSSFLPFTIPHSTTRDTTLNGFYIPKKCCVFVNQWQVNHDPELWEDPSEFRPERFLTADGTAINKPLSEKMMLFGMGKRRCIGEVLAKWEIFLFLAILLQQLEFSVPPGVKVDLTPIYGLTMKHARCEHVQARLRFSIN
Put plainly: Inhibition of human CYP1A2 expressed in bactosome. It counts as ADME.

Data set [4] in a line: Half life in portal vein-cannulated rat. It counts as ADME, organism-based. The conditions noted are these: in vivo.
Data set [5] in a line: Fraction absorbed in portal vein-cannulated rat. It counts as ADME, organism-based. Particulars: in vivo.
The target in data set [6] is Voltage-gated inwardly rectifying potassium channel KCNH2 (Homo sapiens, UniProt Q12809). The data set is described as follows: Displacement of [3H]-dofetilide from human ERG potassium channel by scintillation proximity assay.
The target in a further data set is Cytochrome P450 2D6 (Homo sapiens, UniProt P10635). Put plainly: Inhibition of human CYP2D6 expressed in bactosome. It is filed as ADME.
For another data set, the target named is D(1A) dopamine receptor (Homo sapiens, UniProt P21728). Put plainly: Binding affinity to dopamine D1 receptor (unknown origin).
The target in the next data set is Cytochrome P450 2C19 (Homo sapiens, UniProt P33261). Put plainly: Inhibition of human CYP2C19 expressed in bactosome. It counts as ADME.
Data set [7] in a line: Fraction unbound in portal vein-cannulated rat brain. It is filed as ADME, tissue-based.
Data set [8] can be described thus: Volume of distribution at steady state in portal vein-cannulated rat. The conditions noted are these: in vivo, read-out: Vdss. It is filed as ADME, organism-based.
In data set [9] the target is T2, Muscarinic acetylcholine receptor M1 (Homo sapiens, UniProt P11229).
T2 sequence (P11229 whole entry): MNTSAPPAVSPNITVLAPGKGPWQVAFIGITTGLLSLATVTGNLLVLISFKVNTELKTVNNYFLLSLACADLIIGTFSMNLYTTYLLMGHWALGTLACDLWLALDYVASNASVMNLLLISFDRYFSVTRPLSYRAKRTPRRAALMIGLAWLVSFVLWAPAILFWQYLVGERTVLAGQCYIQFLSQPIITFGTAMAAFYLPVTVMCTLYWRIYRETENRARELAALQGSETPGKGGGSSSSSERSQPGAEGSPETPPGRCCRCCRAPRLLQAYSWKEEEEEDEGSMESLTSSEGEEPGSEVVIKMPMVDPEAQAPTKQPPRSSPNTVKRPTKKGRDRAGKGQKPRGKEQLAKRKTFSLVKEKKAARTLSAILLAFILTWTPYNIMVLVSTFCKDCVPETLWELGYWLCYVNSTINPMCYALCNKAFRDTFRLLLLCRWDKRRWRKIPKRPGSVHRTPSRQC
The data set is described as follows: Antagonist activity at muscarinic M1 receptor (unknown origin).

Data set [10] deals with D(3) dopamine receptor (Rattus norvegicus, UniProt P19020).
Description: Displacement of [125I]-7-OH-PIPAT from rat brain dopamine D3 receptor after 45 mins by microplate scintillation counting analysis
A short description of data set [11]: Intrinsic clearance in human liver microsomes assessed per mg of protein. It is filed as ADME. The conditions noted are these: read-out: CLH. A general note: Microsomes from liver hold many membrane-bound enzymes, among them those of drug oxidation.
Data set [12] is described as follows: Bioavailability in portal vein-cannulated rat. It is filed as ADME, organism-based. The conditions noted are these: in vivo.
Data set [13] deals with T3, Cytochrome P450 3A4 (Homo sapiens, UniProt P08684). The data set is described as follows: Inhibition of human CYP3A4 expressed in bactosome using 7BQ as substrate. It counts as ADME.
Data set [14] is described as follows: Blood clearance in portal vein-cannulated rat. It counts as ADME, organism-based. Particulars: whole blood.
The next data set addresses T4, D(4) dopamine receptor (Homo sapiens, UniProt P21917).
T4 sequence (P21917 whole entry): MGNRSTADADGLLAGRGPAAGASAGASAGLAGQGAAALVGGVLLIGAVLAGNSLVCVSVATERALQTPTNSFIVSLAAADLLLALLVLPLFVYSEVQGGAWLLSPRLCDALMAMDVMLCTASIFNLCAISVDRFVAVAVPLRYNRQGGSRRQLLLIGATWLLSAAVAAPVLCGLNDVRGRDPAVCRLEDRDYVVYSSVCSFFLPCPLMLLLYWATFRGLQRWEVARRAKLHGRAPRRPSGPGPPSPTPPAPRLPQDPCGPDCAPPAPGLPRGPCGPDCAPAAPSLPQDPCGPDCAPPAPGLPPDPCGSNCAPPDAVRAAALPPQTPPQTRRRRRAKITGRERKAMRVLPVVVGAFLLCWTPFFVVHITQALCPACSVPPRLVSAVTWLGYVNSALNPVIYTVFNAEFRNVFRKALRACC
Put plainly: (§1) Binding affinity to dopamine D4 receptor (unknown origin).

In the next data set the target is Cytochrome P450 2C9 (Homo sapiens, UniProt P11712). Put plainly: Inhibition of human CYP2C9 expressed in bactosome. It is filed as ADME.
The target of data set [15] is T3, Cytochrome P450 3A4. The data set is described as follows: Inhibition of human CYP3A4 expressed in bactosome using DBOMF as substrate. It counts as ADME.
Data set [16] can be described thus: Intrinsic clearance in rat liver microsomes assessed per mg of protein. It counts as ADME. The conditions noted are these: read-out: CLH.
The nature of data set [17]: Hepatic extraction ratio in portal vein-cannulated rat. It is filed as ADME, organism-based. The conditions noted are these: in vivo, read-out: ERH.
Data set [18] has as its target T5, D(4) dopamine receptor (Homo sapiens) (UniProt P21917).
T5 sequence (whole entry): T4 sequence (P21917 whole entry)
The description is as §1.

The target of data set [19] is T6, D(3) dopamine receptor (Homo sapiens, UniProt P35462). Put plainly: Agonist activity at human dopamine D3 receptor expressed in CHO cells after 90 mins by [35S]-GTPgamma S assay. It counts as cell-based.
The target in data set [20] is T6, D(3) dopamine receptor. The data set is described as follows: Antagonist activity at human dopamine D3 receptor expressed in CHO cells after 90 mins by [35S]-GTPgamma S assay. It is filed as cell-based.

T3 sequence (P08684 whole entry): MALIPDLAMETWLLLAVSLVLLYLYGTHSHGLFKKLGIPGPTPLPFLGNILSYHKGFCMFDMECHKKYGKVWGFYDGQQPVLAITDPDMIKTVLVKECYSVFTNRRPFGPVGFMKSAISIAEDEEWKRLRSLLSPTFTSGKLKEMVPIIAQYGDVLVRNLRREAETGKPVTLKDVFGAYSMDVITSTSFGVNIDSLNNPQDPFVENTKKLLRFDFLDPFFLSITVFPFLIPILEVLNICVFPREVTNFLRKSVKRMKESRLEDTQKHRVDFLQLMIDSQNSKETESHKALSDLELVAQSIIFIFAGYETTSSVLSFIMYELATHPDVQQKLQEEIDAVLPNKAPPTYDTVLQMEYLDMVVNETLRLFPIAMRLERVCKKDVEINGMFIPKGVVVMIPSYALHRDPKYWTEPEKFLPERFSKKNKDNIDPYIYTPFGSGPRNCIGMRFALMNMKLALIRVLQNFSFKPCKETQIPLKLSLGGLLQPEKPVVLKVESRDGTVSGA
D(3) dopamine receptor (Rattus norvegicus, UniProt P19020), sequence (P19020 whole entry): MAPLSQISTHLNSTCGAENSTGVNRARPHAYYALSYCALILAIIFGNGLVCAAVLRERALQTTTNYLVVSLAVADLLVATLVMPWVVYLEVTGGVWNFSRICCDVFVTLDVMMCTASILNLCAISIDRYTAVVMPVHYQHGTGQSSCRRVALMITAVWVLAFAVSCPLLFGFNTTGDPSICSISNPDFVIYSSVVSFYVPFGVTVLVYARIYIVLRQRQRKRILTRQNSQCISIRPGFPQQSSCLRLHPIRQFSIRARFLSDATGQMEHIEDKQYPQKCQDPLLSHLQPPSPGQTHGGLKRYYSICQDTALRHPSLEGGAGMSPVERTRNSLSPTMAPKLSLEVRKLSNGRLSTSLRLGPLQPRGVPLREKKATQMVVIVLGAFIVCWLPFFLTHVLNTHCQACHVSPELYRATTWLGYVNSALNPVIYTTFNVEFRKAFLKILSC
Cytochrome P450 2C9, sequence (P11712 whole entry): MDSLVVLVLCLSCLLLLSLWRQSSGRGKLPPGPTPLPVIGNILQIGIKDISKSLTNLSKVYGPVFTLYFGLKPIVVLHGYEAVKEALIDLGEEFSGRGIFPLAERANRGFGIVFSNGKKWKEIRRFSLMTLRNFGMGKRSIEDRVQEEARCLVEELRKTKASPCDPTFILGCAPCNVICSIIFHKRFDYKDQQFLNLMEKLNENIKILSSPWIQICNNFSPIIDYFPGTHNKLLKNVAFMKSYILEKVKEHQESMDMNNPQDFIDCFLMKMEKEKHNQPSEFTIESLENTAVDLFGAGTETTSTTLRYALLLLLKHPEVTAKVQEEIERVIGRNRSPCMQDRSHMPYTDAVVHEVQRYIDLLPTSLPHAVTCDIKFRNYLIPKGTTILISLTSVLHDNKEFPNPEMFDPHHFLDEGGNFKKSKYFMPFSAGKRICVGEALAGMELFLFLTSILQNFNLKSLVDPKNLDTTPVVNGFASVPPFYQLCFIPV
Cytochrome P450 2C19, sequence (P33261 whole entry): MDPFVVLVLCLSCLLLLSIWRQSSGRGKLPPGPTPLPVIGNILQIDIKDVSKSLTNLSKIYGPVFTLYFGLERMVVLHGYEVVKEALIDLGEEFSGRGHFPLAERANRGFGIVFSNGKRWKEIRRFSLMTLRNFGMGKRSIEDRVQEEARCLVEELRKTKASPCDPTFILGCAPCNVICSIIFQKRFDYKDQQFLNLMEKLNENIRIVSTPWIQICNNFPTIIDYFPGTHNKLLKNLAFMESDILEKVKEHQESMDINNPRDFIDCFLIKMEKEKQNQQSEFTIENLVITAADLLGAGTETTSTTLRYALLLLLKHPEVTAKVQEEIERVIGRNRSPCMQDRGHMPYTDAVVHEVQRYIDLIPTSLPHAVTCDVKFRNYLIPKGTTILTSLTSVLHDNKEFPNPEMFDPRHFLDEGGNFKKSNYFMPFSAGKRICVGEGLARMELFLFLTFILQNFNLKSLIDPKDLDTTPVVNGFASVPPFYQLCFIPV
Cytochrome P450 2D6, sequence (P10635 whole entry): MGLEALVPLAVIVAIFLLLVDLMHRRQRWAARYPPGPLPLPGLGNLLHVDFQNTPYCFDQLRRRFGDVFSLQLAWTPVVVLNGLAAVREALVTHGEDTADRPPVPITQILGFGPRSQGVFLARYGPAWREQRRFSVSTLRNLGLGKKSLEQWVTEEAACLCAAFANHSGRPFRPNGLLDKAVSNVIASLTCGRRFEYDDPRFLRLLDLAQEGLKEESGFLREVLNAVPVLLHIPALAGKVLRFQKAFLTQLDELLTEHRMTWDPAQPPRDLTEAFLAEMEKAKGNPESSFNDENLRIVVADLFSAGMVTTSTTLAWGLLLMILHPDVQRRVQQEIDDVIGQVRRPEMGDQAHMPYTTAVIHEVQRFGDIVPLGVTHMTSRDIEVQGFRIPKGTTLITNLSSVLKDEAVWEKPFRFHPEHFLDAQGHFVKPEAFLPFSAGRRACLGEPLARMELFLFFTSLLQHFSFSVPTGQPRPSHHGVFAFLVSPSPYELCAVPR
Dopamine receptor D2 and D3 (Rattus norvegicus), sequence (P19020 whole entry, looked up): as the sequence (P19020 whole entry) above
Dopamine receptor D2 and D3 (Rattus norvegicus), sequence (P61169 whole entry, looked up): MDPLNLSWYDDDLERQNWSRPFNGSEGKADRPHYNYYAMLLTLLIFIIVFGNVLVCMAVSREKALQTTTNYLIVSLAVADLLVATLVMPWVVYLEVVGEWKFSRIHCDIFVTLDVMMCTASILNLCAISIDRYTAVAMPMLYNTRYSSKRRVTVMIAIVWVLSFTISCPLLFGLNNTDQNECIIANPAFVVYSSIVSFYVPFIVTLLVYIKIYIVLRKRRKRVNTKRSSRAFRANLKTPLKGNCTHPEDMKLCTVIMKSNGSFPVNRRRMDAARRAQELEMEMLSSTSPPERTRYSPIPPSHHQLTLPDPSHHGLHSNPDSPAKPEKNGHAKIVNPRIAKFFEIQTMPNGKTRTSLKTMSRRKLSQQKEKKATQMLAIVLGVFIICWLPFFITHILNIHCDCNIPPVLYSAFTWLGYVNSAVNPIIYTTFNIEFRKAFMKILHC
T6 sequence (P35462 whole entry): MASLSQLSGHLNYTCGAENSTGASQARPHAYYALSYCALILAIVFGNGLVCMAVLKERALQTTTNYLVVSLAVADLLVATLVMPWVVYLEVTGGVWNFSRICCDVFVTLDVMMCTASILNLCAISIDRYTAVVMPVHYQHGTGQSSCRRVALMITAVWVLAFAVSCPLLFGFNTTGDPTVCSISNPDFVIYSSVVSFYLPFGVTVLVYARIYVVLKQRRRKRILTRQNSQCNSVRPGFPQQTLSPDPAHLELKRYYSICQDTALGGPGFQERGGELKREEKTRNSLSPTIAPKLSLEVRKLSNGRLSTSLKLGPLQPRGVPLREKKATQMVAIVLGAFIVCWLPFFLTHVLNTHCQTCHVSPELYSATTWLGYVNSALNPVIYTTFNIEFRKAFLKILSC
D(1A) dopamine receptor, sequence (P21728 whole entry): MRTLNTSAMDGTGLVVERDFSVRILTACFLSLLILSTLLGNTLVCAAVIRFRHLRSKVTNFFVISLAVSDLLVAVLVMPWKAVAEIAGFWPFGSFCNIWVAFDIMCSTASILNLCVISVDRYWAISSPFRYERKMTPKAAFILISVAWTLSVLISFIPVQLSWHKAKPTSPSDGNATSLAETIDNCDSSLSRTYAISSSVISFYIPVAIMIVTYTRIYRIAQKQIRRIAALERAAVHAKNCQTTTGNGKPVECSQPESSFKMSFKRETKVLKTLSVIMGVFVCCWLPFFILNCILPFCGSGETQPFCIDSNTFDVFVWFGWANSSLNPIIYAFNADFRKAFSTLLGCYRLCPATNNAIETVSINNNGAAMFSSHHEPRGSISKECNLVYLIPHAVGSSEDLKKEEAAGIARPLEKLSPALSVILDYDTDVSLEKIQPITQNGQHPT
Voltage-gated inwardly rectifying potassium channel KCNH2, sequence (Q12809 whole entry): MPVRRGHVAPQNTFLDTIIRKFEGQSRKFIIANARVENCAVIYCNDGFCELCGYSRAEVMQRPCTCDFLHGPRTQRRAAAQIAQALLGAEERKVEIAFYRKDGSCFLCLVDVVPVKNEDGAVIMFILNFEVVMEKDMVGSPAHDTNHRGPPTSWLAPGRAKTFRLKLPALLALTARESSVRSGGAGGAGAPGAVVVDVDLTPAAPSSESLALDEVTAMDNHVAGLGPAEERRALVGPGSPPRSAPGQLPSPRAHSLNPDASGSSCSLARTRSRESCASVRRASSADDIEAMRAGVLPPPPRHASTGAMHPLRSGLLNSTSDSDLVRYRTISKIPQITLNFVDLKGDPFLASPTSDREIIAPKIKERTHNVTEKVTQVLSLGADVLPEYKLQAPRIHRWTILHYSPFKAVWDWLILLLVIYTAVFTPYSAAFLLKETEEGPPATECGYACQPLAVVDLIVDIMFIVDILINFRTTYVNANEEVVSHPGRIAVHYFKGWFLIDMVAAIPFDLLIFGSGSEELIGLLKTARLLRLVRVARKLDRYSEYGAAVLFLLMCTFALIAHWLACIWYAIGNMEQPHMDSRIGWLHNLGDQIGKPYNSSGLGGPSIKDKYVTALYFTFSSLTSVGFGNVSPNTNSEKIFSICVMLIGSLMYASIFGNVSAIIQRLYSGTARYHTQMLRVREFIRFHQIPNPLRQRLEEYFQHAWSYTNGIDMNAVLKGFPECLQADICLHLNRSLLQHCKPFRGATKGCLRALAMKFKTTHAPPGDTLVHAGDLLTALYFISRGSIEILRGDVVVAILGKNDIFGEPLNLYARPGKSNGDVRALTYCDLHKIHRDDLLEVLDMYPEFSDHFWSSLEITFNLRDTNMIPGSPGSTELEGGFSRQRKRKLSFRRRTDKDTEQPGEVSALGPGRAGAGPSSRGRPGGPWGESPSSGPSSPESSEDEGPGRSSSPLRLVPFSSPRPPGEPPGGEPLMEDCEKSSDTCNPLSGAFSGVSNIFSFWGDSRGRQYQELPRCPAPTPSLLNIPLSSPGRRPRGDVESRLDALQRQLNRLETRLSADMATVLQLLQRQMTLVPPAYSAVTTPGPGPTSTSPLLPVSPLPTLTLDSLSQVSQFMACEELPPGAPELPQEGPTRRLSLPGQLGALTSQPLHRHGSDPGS

In the case of `Cn1c(SCCCN2CCOC(c3ccc(C(F)(F)F)cc3)C2)nnc1-c1ccc(-c2ncco2)cc1` (racemic), the Ratio Ki in data set [1] came out at 300.
Broadly, the pKi is the Ki on a negative log10 scale, so that one unit is a factor of ten. Low values mean a large Ki, high ones a small Ki. What is called fraction unbound is the share of the substance not bound to proteins or other matrix. Read a low fraction unbound as little free substance. As a reminder, the pIC50 is −log10 of the IC50, conventionally taken in molar units. As a reminder, the half-life is the time needed for the level to fall by half in the phase considered. High values mean slow loss, low ones fast loss. The bioavailability is the share of a dose that reaches the circulation, judged against a reference dose that is usually intravenous. A low value points to poor availability. As a reminder, the clearance is the volume of plasma or blood freed of the substance per unit of time. Higher therefore signals a high capacity for elimination. Consider `Cc1ncoc1-c1nnc(SCCCN2CCOC(c3ccc(C(F)(F)F)cc3)C2)n1C` (stereo in doubt; 9), for which the pKi in data set [2] is 6.00; in [6], 5.50; on D(1A) dopamine receptor it was under 4.00; in data set [9], 6.00; on D(3) dopamine receptor [10] it was 7.30; at D(4) dopamine receptor it was under 4.00. Also, the free fraction (fraction unbound) in data set [3] stood at 0.062; in data set [7], 0.071. In addition, the pIC50 on Cytochrome P450 1A2, against Cytochrome P450 2D6, at Cytochrome P450 2C19, against Cytochrome P450 3A4 [13], against Cytochrome P450 2C9 and against Cytochrome P450 3A4 [15] was under 5.22 each time. Also, the half-life in [4] is 3.5 h. In addition, the Fa in data set [5] was determined as 63%. Moreover, the Vd in [8] came out at 2.5 L/kg. Besides, the microsomal CLint in data set [11] amounted to 40 µL/min/mg. Further, the bioavailability in data set [12] was found to be 58%. Moreover, in data set [14], the clearance is 13.5 mL/min/kg.
As for `Cc1ncoc1-c1nnc(SCCCN2CCOC(c3ccc(F)cc3)C2)n1C` (stereo in doubt; 7) [listing 1 of 2 here], the results for the fraction unbound in [3] and in data set [7] were 0.17 and over 0.5, respectively. Further, the negative-log IC50 (pIC50) against Cytochrome P450 1A2, at Cytochrome P450 2D6, at Cytochrome P450 2C19, on Cytochrome P450 3A4 [13], against Cytochrome P450 2C9 and against Cytochrome P450 3A4 [15] was under 4.52 each time. For the same compound, the half-life in data set [4] is 0.8 h. In [5], this compound gave a Fa of 100%. Besides, the pKi is 5.50 in data set [6], 5.50 in data set [9] and 6.60 at D(3) dopamine receptor [10]. In addition, the Vd in [8] stood at 2.61 L/kg. For the same compound, the values for the microsomal CLint in [16] and in [11] were under 9 µL/min/mg and 21.7 µL/min/mg, respectively. Also, in [12], the bioavailability was determined as 100%. For the same compound, in data set [17], the hepatic extraction ratio is 0.1. Moreover, the clearance in data set [14] came to 40 mL/min/kg.
Consider `Cc1ncoc1-c1nnc(SCCCN2CCOC(c3ccc(F)cc3)C2)n1C` (stereo in doubt; 7) [listing 2 of 2 here], for which the result (in data set [2]; at D(1A) dopamine receptor; in data set [18]) was inactive.
Take `Cn1c(SCCCN2CCOC(c3ccc(C(F)(F)F)cc3)C2)nnc1C1CCCCC1` (racemic): the Ratio Ki in data set [1] turned out to be 200. Besides, the results for the pKi on D(3) dopamine receptor [10], on D(3) dopamine receptor [19] and at D(3) dopamine receptor [20] were 7.40, under 5.00 and 7.70, respectively.
